ChEMBL document CHEMBL5729558, “Morpholinylpyridone compounds” (2023)

target: Phosphatidylinositol 3-kinase catalytic subunit type 3 (Homo sapiens, UniProt Q8NEB9); experiment: Vps34 Biochemical Assay: Dilution series of compounds of the invention were prepared in DMSO at 100 times the final assay concentration (n1=n0/3 in 10 points). The compounds were further diluted to 4 times the assay concentration in assay buffer (Life technologies buffer Q, PV5125, diluted 5 times supplemented with 2 mM DTT and 2 mM MnCl2). 2.5 μl of the diluted compounds were added to a 384 well assay plate followed by 2.5 μl of 16.5 nM Vps34 enzyme (Life technologies, PV5126). Enzyme and compounds were pre-incubated at rt for 15 min. Then 5 μl of substrate mix containing 20 μM ATP (Life technologies, PV3227) and 200 μM PI:PS substrate (Life technologies, PV5122) in assay buffer was added to the wells containing compound and enzyme. Mixing was performed by pipetting several times. The reaction was incubated at room temperature for 1 h. Then 5 μl stop-detection mix, prepared as described in the Adapta kinase assay kit instructions (Life technologies, PV5099) containing Adapta Eu-anti-ADP antibody (2.3 nM), Alexa Fluor 647 ADP tracer (9 nM) and EDTA (30 mM) in TR-FRET buffer, was added to quench the reaction. Mixing was performed by pipetting several times. The assay plate was then incubated at room temperature for 30 min and read with Artemis micro plate reader. Percent inhibition of the compounds as compared to DMSO treated control samples was calculated. By the use of Dotmatics software compound concentration versus percent inhibition was fitted to generate IC50 values.
Sequence (Q8NEB9 whole entry): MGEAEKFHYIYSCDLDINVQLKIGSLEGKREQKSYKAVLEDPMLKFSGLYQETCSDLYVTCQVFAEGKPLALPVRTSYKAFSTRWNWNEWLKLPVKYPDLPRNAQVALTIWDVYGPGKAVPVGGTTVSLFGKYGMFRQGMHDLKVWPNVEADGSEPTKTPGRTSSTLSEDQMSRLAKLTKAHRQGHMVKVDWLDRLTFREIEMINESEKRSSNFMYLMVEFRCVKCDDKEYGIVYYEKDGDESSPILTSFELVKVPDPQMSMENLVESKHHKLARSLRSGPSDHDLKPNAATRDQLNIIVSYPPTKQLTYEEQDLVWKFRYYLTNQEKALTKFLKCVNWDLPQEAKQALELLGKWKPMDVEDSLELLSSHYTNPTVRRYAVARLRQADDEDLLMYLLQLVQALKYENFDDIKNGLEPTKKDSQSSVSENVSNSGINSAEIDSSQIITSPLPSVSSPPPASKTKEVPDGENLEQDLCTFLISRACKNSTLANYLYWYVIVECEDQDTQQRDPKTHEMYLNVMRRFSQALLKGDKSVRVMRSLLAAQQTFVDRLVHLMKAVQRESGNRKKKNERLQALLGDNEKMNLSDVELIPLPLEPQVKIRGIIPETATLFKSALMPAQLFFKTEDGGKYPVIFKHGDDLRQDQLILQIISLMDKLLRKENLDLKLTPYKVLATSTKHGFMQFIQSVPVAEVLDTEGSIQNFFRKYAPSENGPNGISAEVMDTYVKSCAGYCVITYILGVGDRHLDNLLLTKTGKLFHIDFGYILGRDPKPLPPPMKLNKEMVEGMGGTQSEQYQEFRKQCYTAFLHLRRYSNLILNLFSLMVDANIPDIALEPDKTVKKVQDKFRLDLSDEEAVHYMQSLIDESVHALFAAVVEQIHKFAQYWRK

| IC50 | Structure (SMILES) |
| --- | --- |
| < 5 nM | C[C@@H]1COCCN1c1cc(N2CCN(S(=O)(=O)N3CCOCC3)CC2C(F)(F)F)[nH]c(=O)c1 (stereo partly drawn) |
| < 5 nM | C[C@@H]1COCCN1c1cc(N2CCN(S(=O)(=O)C3CC3)CC2C(F)(F)F)[nH]c(=O)c1 (stereo partly drawn) |
| < 5 nM | C[C@@H]1COCCN1c1cc(N2CCN(S(=O)(=O)c3ccnn3C)CC2C(F)(F)F)[nH]c(=O)c1 (stereo partly drawn) |
